Publication PMC10584170, “Machine learning-based phenotypic imaging to characterise the targetable biology of Plasmodium falciparum male gametocytes for the development of transmission-blocking antimalarials” (PLOS Pathogens, 2023)
Read-outs that look alike come from different tables or passages of the source.

Key:
[1] = tested on: P. falciparum male gametocytes; test: P. falciparum Dual Gamete Formation Assay (PfDGFA), male readout (exflagellation); assay type: cell-based, Plasmodium falciparum NF54; conditions: for Selectivity Ratio M: HepG2 Tox50 versus male IC50
Outline: (§1)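 First, day-14 P. falciparum NF54 gametocytes receive compound for 24 h at 37°C in 1% O2/3% CO2. Next, ookinete medium with Cy3 anti-Pfs25 triggers gametogenesis at 28°C and male exflagellation is imaged. Finally, after 24 h in the dark, Cy3-labelled females are imaged.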

[2] = tested on: P. falciparum female gametocytes; test: P. falciparum Dual Gamete Formation Assay (PfDGFA), female readout (Pfs25-positive female gametes); assay type: cell-based, Plasmodium falciparum NF54; conditions: for Selectivity ratio F: HepG2 Tox50 versus female IC50
Outline: as §1

[3] = tested on: P. falciparum male gametocytes; test: PhIDDLI timecourse assay, compound added at timepoints after triggering male gametogenesis; assay type: cell-based, Plasmodium falciparum NF54; conditions: compound added concurrent with triggering gametogenesis or at any other point
Protocol: To gain greater understanding of their activity, selected molecules displaying different inhibition phenotypes in the initial screen were re-tested. Rather than subjecting gametocytes to a 24h preincubation prior to inducing gametogenesis, compounds were added at varying timepoints after triggering male gametogenesis. Samples were then fixed 20 min post-induction, imaged and analysed similarly using the PhIDDLI pipeline.
Alternatively, if compound action over time was to be assessed, 1.5ml tubes with appropriate dilutions of test compounds were prepared for each timepoint. Gametogenesis was then triggered in the mature gametocyte culture with ookinete medium and temperature decrease from 37°C. At appropriate times, 200 μl of triggered culture was sampled and mixed with test compound. All samples were then allowed to continue gametogenesis and fixed as described previously with paraformaldehyde after 20 min (when a DMSO-treated sample could be expected to be exflagellating).
100 μl of the fixed cell suspensions were added to wells of a 24 well plate containing 1ml PBS and a poly-l-lysine-coated glass coverslip. Cells were allowed to settle and adhere to the coverslip overnight at 4°C before coverslips were transferred to a hydrophobic membrane (Parafilm) for immunofluorescence staining in a humidified, dark box. Cells were permeabilised with 0.1% Triton-X100 in PBS for 10 min before washing in PBS three times. Non-specific binding was blocked by incubating coverslips with PBS + 10% fetal bovine serum (FBS) (blocking buffer) for 1 h. Gametocytes and microgametes were visualised by labelling with an anti-alpha tubulin antibody (raised from chicken embryo brain tubulin but cross-reacts with many other species) (clone DM1A (Sigma)) 1:500 dilution in blocking buffer for 1 h, washed as before, and then stained with an anti-mouse Alexa488 secondary antibody (Thermo-Fisher) 1:1,000 dilution in blocking buffer for a further 1 h. After a final series of washes, the coverslips were mounted on glass slides with VectaShield mountant (Vector Laboratories) containing 4′,6-diamidino-2-phenylindole (DAPI) to visualise cellular DNA.
All slides were imaged using a Nikon Ti fluorescence microscope using an x100 oil objective and 1.5x zoom. For each sample, tubulin-postive, DAPI-positive stained gametocytes/gametes were imaged at random. Z-stack images with 0.3μm slices were captured for each field of view and images deconvolved and transformed by maximum intensity projection within the Nikon NIS Elements software. Within raw images, cells were initially identified by an automated analysis pipeline developed in ICY Bioimage Analysis based upon the intensity of the tubulin staining captured which assigns a region of interest (ROI) around each cell. All ROIs were reviewed by a trained operator and adjusted if necessary to reflect the true outline of the cell (for example if two cells touching had been allocated the same ROI). Raw images contained between 1 and 8 extractable cells.
Code for the PhIDDLI pipeline was written in Python 3.8 and executed by command line within a 64-bit Ubuntu virtual machine running within Oracle VM VirtualBox 6.1. […] Principle component analysis of compound phenotypes (Fig 5) was performed using ClustViz (https://biit.cs.ut.ee/clustvis/) using ln(x+1) transformation, and k-means clustering of the resultant PCA data was coded in R and executed in R Studio version 1.1.456 to identify optimum cluster using the elbow method.

[4] = tested on: P. falciparum gametocytes; test: P. falciparum Gametocyte Viability ATP Assay (PfGCT); assay type: cell-based, Plasmodium falciparum
Source text: (§2) Fig 1 The activity of TCAMS compound identified in the Pf DGFA screen. (A) 85 molecules were confirmed active in the Pf DGFA. 58 were previously identified in one or more transmission-blocking screens. […] No molecule was identified with >4.7-fold greater activity against female gametocytes. Abbreviations (IC50 = concentration giving 50% inhibition, PbODA = P. berghei Ookinete Development Assay, PfDGFA = P. falciparum Dual Gamete Formation Assay, PfFGAA = P. falciparum Female Gametocyte Activation Assay, PfGCT = P. falciparum Gametocyte Viability ATP Assay).

[5] = tested on: P. falciparum gametocytes; design: method as in Almela et al 2015; conditions: ref Almela et al 2015; read-out: Pf Gametocyte viability (ATP) GC-ATP IC50; cited from earlier work
[6] = tested on: HepG2 cells; conditions: cited from earlier work
[7] = tested on: HepG2 cells; test: HepG2 cytotoxicity counter-screen; conditions: for Mean TOX: mean of the HepG2 TOX50 values; for Tox50: cytotoxic activity against HepG2 cells
[8] = tested on: P. berghei ookinete development; test: P. berghei Ookinete Development Assay (PbODA); assay type: cell-based, Plasmodium berghei; conditions: Mean TOX HepG2 over Pb ODA value; GREEN = >10-fold; RED = <10-fold
Source text: as §2

[9] = tested on: P. falciparum female gametocytes; test: P. falciparum Female Gametocyte Activation Assay (PfFGAA); assay type: cell-based, Plasmodium falciparum
[10] = tested on: P. falciparum female gametocytes; design: method as in Miguel-Blanco et al 2017; conditions: ref Miguel-Blanco et al 2017; read-out: Pf female gametogenesis FGAA IC50; cited from earlier work
[11] = this study, read-out: Pf DGFA IC50 MALE
[12] = this study, read-out: Pf DGFA IC50 FEM
[13] = Mean TOX HepG2 over GC-ATP IC50, GREEN = >10-fold, RED = <10-fold
[14] = Mean TOX HepG2 over DGFA IC50 MALE, GREEN = >10-fold, RED = <10-fold
[15] = Plasmodium falciparum, PfDGFA, 24 h incubation with gametocytes before induction, exflagellation readout, read-out: Male IC50
[16] = Mean TOX HepG2 over DGFA IC50 FEM, GREEN = >10-fold, RED = <10-fold
[17] = Plasmodium falciparum, PfDGFA, 24 h incubation with gametocytes before induction, female gamete readout, read-out: Female IC50
[18] = HepG2 value reported with the FGAA screen, ref Miguel-Blanco et al 2017
[19] = HepG2 value reported with the GC-ATP screen, ref Almela et al 2015
[20] = Plasmodium falciparum, 2µM, 24h preincubation with gametocytes, average of replicates, read-out: Average inhibition male (%)
[21] = Plasmodium falciparum, 2µM, 24h preincubation with gametocytes, replicate R1, read-out: % inhibition male (individual replicates) R1
[22] = Plasmodium falciparum, 2µM, 24h preincubation with gametocytes, replicate R2, read-out: % inhibition male (individual replicates) R2
[23] = Plasmodium falciparum, 2µM, 24h preincubation with gametocytes, replicate R3, read-out: % inhibition male (individual replicates) R3
[24] = Plasmodium falciparum, 2µM, 24h preincubation with gametocytes, replicate R4, read-out: % inhibition male (individual replicates) R4
[25] = Plasmodium falciparum, 2µM, 24h preincubation with gametocytes, average of replicates, read-out: Average inhibition female (%)
[26] = Plasmodium falciparum, 2µM, 24h preincubation with gametocytes, replicate R1, read-out: % inhibition female (individual replicates) R1
[27] = Plasmodium falciparum, 2µM, 24h preincubation with gametocytes, replicate R2, read-out: % inhibition female (individual replicates) R2
[28] = Plasmodium falciparum, 2µM, 24h preincubation with gametocytes, replicate R3, read-out: % inhibition female (individual replicates) R3
[29] = Plasmodium falciparum, 2µM, 24h preincubation with gametocytes, replicate R4, read-out: % inhibition female (individual replicates) R4

IC50 [1, 11]	IC50 [2, 12]	SMILES	Cytotox ratio Pf Male [1]	Cytotox ratio Pf Female [2]	Cytotox ratio Pf GC-ATP [4, 13]	IC50 [5]	GC-ATP TOX50 HepG2 [6]	Mean TOX [7]	IC50 [10]	Selectivity Ratio M [1]	Cytotox ratio Pf Male [1, 14]	IC50 [1, 15]	Selectivity ratio F [2]	Cytotox ratio Pf Female [2, 16]	IC50 [2, 17]	Cytotox ratio Pf FGAA ([9]; human)	Cytotox ratio Pf GC-ATP ([4]; human)	FGAA TOX50 HepG2 [6, 18]	GC-ATP TOX50 HepG2 [6, 19]	Tox50 [7]	further results
380 nM	380 nM	COc1ccc2nc3cc(Cl)ccc3c(NCCCCNc3c4ccc(Cl)cc4nc4ccc(OC)cc34)c2c1 [TC02]	22.1	22.1	42.0	200 nM	14.47 µM	8.39 µM													impact on exflagellation [3]: little-to-no impact
150 nM	110 nM	O=c1c(Br)ccccc1Br [TC48]	76.3	104.1	54.5	210 nM	12.6 µM	11.45 µM													Cytotox ratio Pb Ookinete [8]: 10834.6; ODA TOX50 HepG2 [6]: 14.791 µM
240 nM	260 nM	O=C(O)CCSSc1cccc[n+]1[O-] [TC78]	92.3	85.2	82.1	270 nM	7.8 µM	22.16 µM	40 nM												Cytotox ratio Pb Ookinete [8]: 13258.7; Cytotox ratio Pf FGAA ([9]; Mean TOX HepG2 over FGAA IC50, GREEN = >10-fold, RED = <10-fold): 554.1; FGAA TOX50 HepG2 [6]: 19.05 µM; ODA TOX50 HepG2 [6]: 30.903 µM

More lines, now with the values behind:

SMILES	IC50 [1, 11]	IC50 [2, 12]	Cytotox ratio Pf Male [1]	Cytotox ratio Pf Female [2]	Cytotox ratio Pf GC-ATP [4, 13]	IC50 [5]	GC-ATP TOX50 HepG2 [6]	Mean TOX [7]	IC50 [10]	Selectivity Ratio M [1]	Cytotox ratio Pf Male [1, 14]	IC50 [1, 15]	Selectivity ratio F [2]	Cytotox ratio Pf Female [2, 16]	IC50 [2, 17]	Cytotox ratio Pf FGAA ([9]; human)	Cytotox ratio Pf GC-ATP ([4]; human)	FGAA TOX50 HepG2 [6, 18]	GC-ATP TOX50 HepG2 [6, 19]	Tox50 [7]	further results
COc1cc2nc(N3CCN(c4nc(N)c5cc(OC)c(OC)cc5n4)CC3)nc(N)c2cc1OC [TCMDC-123865]						260 nM		39.61 µM	580 nM	28.11	26.9	1470 nM	20.76	19.9	1990 nM	68.3	152.3	52.49 µM	25 µM	41.34 µM	HitlevelM ([1]; 2µM, 24h preincubation, number of replicates with >50% inhibition in the male readout): 3; inhibition at 2 µM ([1]; Plasmodium falciparum, 2µM, 24h preincubation with gametocytes prior to induction of gametogenesis, average of replicates, read-out: Average inhibition male (%)): 50.1%; inhibition at 2 µM ([1]; Plasmodium falciparum, 2µM, 24h preincubation with gametocytes prior to induction of gametogenesis, replicate R1, read-out: % inhibition male (individual replicates) R1): 50.8%; inhibition at 2 µM ([1]; Plasmodium falciparum, 2µM, 24h preincubation with gametocytes prior to induction of gametogenesis, replicate R2, read-out: % inhibition male (individual replicates) R2): 50.6%; inhibition at 2 µM ([1]; Plasmodium falciparum, 2µM, 24h preincubation with gametocytes prior to induction of gametogenesis, replicate R3, read-out: % inhibition male (individual replicates) R3): 23.6%; inhibition at 2 µM ([1]; Plasmodium falciparum, 2µM, 24h preincubation with gametocytes prior to induction of gametogenesis, replicate R4, read-out: % inhibition male (individual replicates) R4): 75.6%; HitlevelF ([2]; 2µM, 24h preincubation, number of replicates with >50% inhibition in the female readout): 0; inhibition at 2 µM ([2]; Plasmodium falciparum, 2µM, 24h preincubation with gametocytes prior to induction of gametogenesis, average of replicates, read-out: Average inhibition female (%)): 2.6%; inhibition at 2 µM ([2]; Plasmodium falciparum, 2µM, 24h preincubation with gametocytes prior to induction of gametogenesis, replicate R1, read-out: % inhibition female (individual replicates) R1): 18.2%; inhibition at 2 µM ([2]; Plasmodium falciparum, 2µM, 24h preincubation with gametocytes prior to induction of gametogenesis, replicate R2, read-out: % inhibition female (individual replicates) R2): 4%; inhibition at 2 µM ([2]; Plasmodium falciparum, 2µM, 24h preincubation with gametocytes prior to induction of gametogenesis, replicate R3, read-out: % inhibition female (individual replicates) R3): -8.7%; inhibition at 2 µM ([2]; Plasmodium falciparum, 2µM, 24h preincubation with gametocytes prior to induction of gametogenesis, replicate R4, read-out: % inhibition female (individual replicates) R4): -3.2%
CN(C)CCNCc1cccc(-c2ccc3c(Nc4ccc(Oc5ccccn5)cc4)ccnc3c2)c1 [TCMDC-138493]						220 nM		6.62 µM	820 nM	14.59	8.5	780 nM	2.14	1.2	5320 nM	4.9	20.4	3.98 µM	4.49 µM	11.38 µM	inhibition at 2 µM [1, 20]: 96.2%; inhibition at 2 µM [1, 21]: 93.5%; inhibition at 2 µM [1, 22]: 99.2%; inhibition at 2 µM [1, 23]: 91.9%; inhibition at 2 µM [1, 24]: 100%; inhibition at 2 µM [2, 25]: 65.4%; inhibition at 2 µM [2, 26]: 58.7%; inhibition at 2 µM [2, 27]: 66.3%; inhibition at 2 µM [2, 28]: 72.6%; inhibition at 2 µM [2, 29]: 64.1%
CN1CCN(CCCNCc2cccc(-c3ccc(CNCCc4ccccc4)cc3)c2)CC1.O=C(O)C(F)(F)F [TCMDC-140643]						410 nM		13.07 µM	1910 nM	18.8	18.9	690 nM	1.63	1.6	7980 nM	6.8	31.9	7.92 µM	18.24 µM	13.04 µM	inhibition at 2 µM [1, 20]: 91.2%; inhibition at 2 µM [1, 21]: 95%; inhibition at 2 µM [1, 22]: 75.6%; inhibition at 2 µM [1, 23]: 95.7%; inhibition at 2 µM [1, 24]: 98.5%; inhibition at 2 µM [2, 25]: 34.1%; inhibition at 2 µM [2, 26]: 40.2%; inhibition at 2 µM [2, 27]: 30.4%; inhibition at 2 µM [2, 28]: 25.8%; inhibition at 2 µM [2, 29]: 40%
